# Laboratory results published in US20260262643A1, “HERBICIDAL BENZOXAZINES” (FMC CORPORATION, priority 2022, published 2026).
# How the values were obtained:
# ryegrass, Italian [1] = test: Test A preemergence; type: in vivo, Lolium multiflorum; conditions: 0 to 100 scale
# Summary of the method: (§1)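 Greenhouse pot test, 10 days. Compound (non-phytotoxic solvent, surfactant) sprayed on soil at seeding or on seedlings at one- to two-leaf stage. Visual injury rated 0–100 against untreated plants.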
# oat, wild [2] = test: Test A preemergence; type: in vivo, Avena fatua; conditions: 0 to 100 scale
# Summary of the method: as §1
# foxtail, giant [3] = test: Test A postemergence; type: in vivo, Setaria faberi; conditions: postemergence, 10 days, 0 to 100 scale (0 no effect, 100 complete control)
# Summary of the method: as §1
# ragweed [4] = test: Test A postemergence; type: in vivo, Ambrosia artemisiifolia; conditions: postemergence, 10 days, 0 to 100 scale (0 no effect, 100 complete control)
# Summary of the method: as §1
# oat, wild [5] = test: Test A postemergence; type: in vivo, Avena fatua; conditions: postemergence, 10 days, 0 to 100 scale (0 no effect, 100 complete control)
# Summary of the method: as §1
# corn [6] = test: Test A preemergence; type: in vivo, Zea mays; conditions: 0 to 100 scale
# Summary of the method: as §1
# blackgrass [7] = test: Test A postemergence; type: in vivo, Alopecurus myosuroides; conditions: postemergence, 10 days, 0 to 100 scale (0 no effect, 100 complete control)
# Summary of the method: as §1
# ducksalad = test: Test B flooded paddy test; type: in vivo, Heteranthera limosa; conditions: 250 g ai/ha, Flood, 13 days, 0 to 100 scale (0 no effect, 100 complete control)
# Summary of the method: (§2)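 Visual scores from 0 (no effect) to 100 (complete kill) were assigned 13 days after treatment by comparison with controls. Seedlings had been treated at two leaves by adding compound to floodwater standing 3 cm deep, kept at that level in the greenhouse.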
# corn [8] = test: Test A postemergence; type: in vivo, Zea mays; conditions: postemergence, 10 days, 0 to 100 scale (0 no effect, 100 complete control)
# Summary of the method: as §1
# rice = test: Test B flooded paddy test; type: in vivo, Oryza sativa; conditions: 250 g ai/ha, Flood, 13 days, 0 to 100 scale (0 no effect, 100 complete control)
# Summary of the method: as §2
# kochia [9] = test: Test A preemergence; type: in vivo, Bassia scoparia; conditions: 0 to 100 scale
# Summary of the method: as §1
# ragweed [10] = test: Test A preemergence; type: in vivo, Ambrosia artemisiifolia; conditions: 0 to 100 scale
# Summary of the method: as §1
# wheat [11] = test: Test A preemergence; type: in vivo, Triticum aestivum; conditions: 0 to 100 scale
# Summary of the method: as §1
# foxtail, giant [12] = test: Test A preemergence; type: in vivo, Setaria faberi; conditions: 0 to 100 scale
# Summary of the method: as §1
# soybean [13] = test: Test A preemergence; type: in vivo, Glycine max; conditions: 0 to 100 scale
# Summary of the method: as §1
# ryegrass, Italian [14] = test: Test A postemergence; type: in vivo, Lolium multiflorum; conditions: postemergence, 10 days, 0 to 100 scale (0 no effect, 100 complete control)
# Summary of the method: as §1
# pigweed, palmer [15] = test: Test A preemergence; type: in vivo, Amaranthus palmeri; conditions: 0 to 100 scale
# Summary of the method: as §1
# barnyardgrass = test: Test B flooded paddy test; type: in vivo, Echinochloa crus-galli; conditions: 250 g ai/ha, Flood, 13 days, 0 to 100 scale (0 no effect, 100 complete control)
# Summary of the method: as §2
# blackgrass [16] = test: Test A preemergence; type: in vivo, Alopecurus myosuroides; conditions: 0 to 100 scale
# Summary of the method: as §1
# horseweed = test: Test A postemergence; type: in vivo, Erigeron canadensis; conditions: postemergence, 10 days, 0 to 100 scale (0 no effect, 100 complete control)
# Summary of the method: as §1
# wheat [17] = test: Test A postemergence; type: in vivo, Triticum aestivum; conditions: postemergence, 10 days, 0 to 100 scale (0 no effect, 100 complete control)
# Summary of the method: as §1
# goosegrass [18] = test: Test A postemergence; type: in vivo, Eleusine indica; conditions: postemergence, 10 days, 0 to 100 scale (0 no effect, 100 complete control)
# Summary of the method: as §1
# pigweed, palmer [19] = test: Test A postemergence; type: in vivo, Amaranthus palmeri; conditions: postemergence, 10 days, 0 to 100 scale (0 no effect, 100 complete control)
# Summary of the method: as §1
# soybean [20] = test: Test A postemergence; type: in vivo, Glycine max; conditions: postemergence, 10 days, 0 to 100 scale (0 no effect, 100 complete control)
# Summary of the method: as §1
# goosegrass [21] = test: Test A preemergence; type: in vivo, Eleusine indica; conditions: 0 to 100 scale
# Summary of the method: as §1
# sedge, umbrella = test: Test B flooded paddy test; type: in vivo, Cyperus difformis; conditions: 250 g ai/ha, Flood, 13 days, 0 to 100 scale (0 no effect, 100 complete control)
# Summary of the method: as §2
# kochia [22] = test: Test A postemergence; type: in vivo, Bassia scoparia; conditions: postemergence, 10 days, 0 to 100 scale (0 no effect, 100 complete control)
# Summary of the method: as §1
# [23] = 125 g ai/ha, visual injury after 10 days, 0 is no effect, 100 is complete control
smiles,measurement,setting,value
Cc1ccc(-n2cnc(Br)n2)cc1C(=O)N1C[C@H](C)Oc2c(Cl)cccc21 [Compound 62],"Plant response rating, Ryegrass, Italian","ryegrass, Italian [1]; 31 g ai/ha",0
same,"Plant response rating, Ryegrass, Italian","ryegrass, Italian [1]; [23]",70
same,"Plant response rating, Oat, Wild","oat, wild [2]; 31 g ai/ha",0
same,"Plant response rating, Oat, Wild","oat, wild [2]; [23]",0
same,"Foxtail, Giant plant response rating","foxtail, giant [3]; 31 g ai/ha",20
same,"Plant response rating, Foxtail, Giant","foxtail, giant [3]; 125 g ai/ha, visual injury",90
same,Ragweed plant response rating,ragweed [4]; 31 g ai/ha,10
same,"Plant response rating, Ragweed","ragweed [4]; 125 g ai/ha, visual injury",20
same,"Oat, Wild plant response rating","oat, wild [5]; 31 g ai/ha",0
same,"Plant response rating, Oat, Wild","oat, wild [5]; 125 g ai/ha, visual injury",20
same,"Plant response rating, Corn",corn [6]; 31 g ai/ha,0
same,"Plant response rating, Corn",corn [6]; [23],0
same,Blackgrass plant response rating,blackgrass [7]; 31 g ai/ha,40
same,"Plant response rating, Blackgrass","blackgrass [7]; 125 g ai/ha, visual injury",50
same,"Plant response rating, Ducksalad",ducksalad,0
same,Corn plant response rating,corn [8]; 31 g ai/ha,10
same,"Plant response rating, Corn","corn [8]; 125 g ai/ha, visual injury",10
same,"Plant response rating, Rice",rice,0
same,"Plant response rating, Kochia",kochia [9]; 31 g ai/ha,10
same,"Plant response rating, Kochia",kochia [9]; [23],80
same,"Plant response rating, Ragweed",ragweed [10]; 31 g ai/ha,0
same,"Plant response rating, Ragweed",ragweed [10]; [23],20
same,"Plant response rating, Wheat",wheat [11]; 31 g ai/ha,0
same,"Plant response rating, Wheat",wheat [11]; [23],0
same,"Plant response rating, Foxtail, Giant","foxtail, giant [12]; 31 g ai/ha",20
same,"Plant response rating, Foxtail, Giant","foxtail, giant [12]; [23]",90
same,"Plant response rating, Soybean",soybean [13]; 31 g ai/ha,0
same,"Plant response rating, Soybean",soybean [13]; [23],0
same,"Ryegrass, Italian plant response rating","ryegrass, Italian [14]; 31 g ai/ha",0
same,"Plant response rating, Ryegrass, Italian","ryegrass, Italian [14]; 125 g ai/ha, visual injury",40
same,"Plant response rating, Pigweed, Palmer","pigweed, palmer [15]; 31 g ai/ha",70
same,"Plant response rating, Pigweed, Palmer","pigweed, palmer [15]; [23]",90
same,"Plant response rating, Barnyardgrass",barnyardgrass,0
same,"Plant response rating, Blackgrass",blackgrass [16]; 31 g ai/ha,0
same,"Plant response rating, Blackgrass",blackgrass [16]; [23],40
same,Horseweed plant response rating,horseweed; 31 g ai/ha,0
same,"Plant response rating, Horseweed","horseweed; 125 g ai/ha, visual injury",0
same,Wheat plant response rating,wheat [17]; 31 g ai/ha,10
same,"Plant response rating, Wheat","wheat [17]; 125 g ai/ha, visual injury",10
same,Goosegrass plant response rating,goosegrass [18]; 31 g ai/ha,10
same,"Plant response rating, Goosegrass","goosegrass [18]; 125 g ai/ha, visual injury",20
same,"Pigweed, Palmer plant response rating","pigweed, palmer [19]; 31 g ai/ha",40
same,"Plant response rating, Pigweed, Palmer","pigweed, palmer [19]; 125 g ai/ha, visual injury",50
same,Soybean plant response rating,soybean [20]; 31 g ai/ha,100
same,"Plant response rating, Soybean","soybean [20]; 125 g ai/ha, visual injury",100
same,"Plant response rating, Goosegrass",goosegrass [21]; 31 g ai/ha,70
same,"Plant response rating, Goosegrass",goosegrass [21]; [23],100
same,"Plant response rating, Sedge, Umbrella","sedge, umbrella",0
same,Kochia plant response rating,kochia [22]; 31 g ai/ha,80
same,"Plant response rating, Kochia","kochia [22]; 125 g ai/ha, visual injury",90
